Test results taken from patent publication US20080227774A1, “5,5-DISUBSTITUTED-INDOLIZINONE COMPOUNDS” (priority 2007, published 2008).

Target: NS5B polymerase (Hepatitis C virus genotype 1b, UniProt P26663)
Test: HCV polymerase inhibition assay (FlashPlate)
Assay type: biochemical
Conditions: 20 nM enzyme, 75 min at 28° C.
Procedure: Compounds were tested for HCV polymerase inhibition. Assays were performed in a 96-well streptavidin-coated FlashPlate using 20 nM enzyme, 0.5 μCi of [α-^33P]GTP, 0.6 μM GTP, and 250 nM 5′biotinylated oligo (rG13)/poly rC in 20 mM Tris-HCl, pH 7.5, 5 mM MgCl2, 5 mM dithiothreitol, 0.1 g/L bovine serum albumin, and 100 U/ml RNAse inhibitor. The reaction was stopped by aspiration after 75 min at 28° C. and the plate was washed several times. After washing and drying the plate, incorporated radioactivity was counted using a Microbeta scintillation counter. IC50 values were calculated relative to the uninhibited control and inhibition data were fitted to a 4-parameter IC50 equation. For very potent inhibitors, the data were fitted to a tight binding quadratic equation to obtain IC50 values.

NS5B polymerase, sequence (P26663 2420-3010): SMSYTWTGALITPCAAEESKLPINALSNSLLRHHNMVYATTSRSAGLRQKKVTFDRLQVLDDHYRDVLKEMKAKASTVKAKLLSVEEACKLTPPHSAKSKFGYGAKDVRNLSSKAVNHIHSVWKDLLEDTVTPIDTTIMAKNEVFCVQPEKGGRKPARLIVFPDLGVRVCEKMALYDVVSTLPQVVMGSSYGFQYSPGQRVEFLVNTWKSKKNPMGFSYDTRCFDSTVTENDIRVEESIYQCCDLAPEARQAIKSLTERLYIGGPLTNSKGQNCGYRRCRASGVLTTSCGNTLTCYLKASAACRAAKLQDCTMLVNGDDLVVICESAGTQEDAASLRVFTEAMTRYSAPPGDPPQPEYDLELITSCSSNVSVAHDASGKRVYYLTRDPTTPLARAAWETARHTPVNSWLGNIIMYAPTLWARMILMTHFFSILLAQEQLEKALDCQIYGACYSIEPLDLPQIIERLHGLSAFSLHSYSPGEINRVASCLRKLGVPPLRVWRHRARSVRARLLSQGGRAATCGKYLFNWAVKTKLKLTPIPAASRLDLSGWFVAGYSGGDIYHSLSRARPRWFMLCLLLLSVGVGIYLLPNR

Compound	IC50
CC(C)CCC1(C)C(=O)C(C2=NS(=O)(=O)c3cc(NS(C)(=O)=O)ccc3N2)=C(O)c2cccn21 (stereo not shown) [Example 2, N-{3-[8-Hydroxy-5-methyl-5-(3-methylbutyl)-6-oxo-5,6-dihydroindolizin-7-yl]-1,1-dioxo-1,2-dihydro-1λ^6-benzo[1,2,4]thiadiazin-7-yl}methanesulfonamide]	< 50 µM
CC(C)CCC1(C)C(=O)C(C2=Nc3ccccc3S(=O)(=O)N2)=C(O)c2cccn21 (stereo not shown) [Example 1, 7-(1,1-Dioxo-1,2-dihydro-1λ^6-benzo[1,2,4]thiadiazin-3-yl)-8-hydroxy-5-methyl-5-(3-methylbutyl)indolizin-6-one]	< 50 µM
CC1(Cc2ccc(F)c(Cl)c2)C(=O)C(C2=NS(=O)(=O)c3cc(NS(C)(=O)=O)ccc3N2)=C(O)c2cccn21 (stereo not shown) [Example 4, N-{3-[5-(3-Chloro-4-fluoro-benzyl)-8-hydroxy-5-methyl-6-oxo-5,6-dihydro-indolizin-7-yl]-1,1-dioxo-1,4-dihydro-1λ^6-benzo[1,2,4]thiadiazin-7-yl}-methanesulfonamide]	< 50 µM
C[C@]1(Cc2ccc(F)cc2)C(=O)C(C2=NS(=O)(=O)c3cc(NS(C)(=O)=O)ccc3N2)=C(O)c2cccn21 [Example 3, N-{3-[5-(S)-(4-Fluoro-benzyl)-8-hydroxy-5-methyl-6-oxo-5,6-dihydro-indolizin-7-yl]-1,1-dioxo-1,4-dihydro-1λ^6-benzo[1,2,4]thiadiazin-7-yl}-methanesulfonamide]	< 50 µM
